PubChem BioAssay (NCI)
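Where inhibition never reached the appropriate level, the endpoint shown equals the highest concentration tested. Otherwise, values were interpolated linearly from a five-concentration, 48-hour dose response in 96-well plates. TGI denotes the concentration required for complete inhibition of growth.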

Legend:
Assay in all cases: NCI tumour cell line growth inhibition, 48 h
[1] = system: K-562 leukemia
[2] = system: HCT-15 colon
[3] = system: SF-268 CNS
[4] = system: PC-3 prostate
[5] = system: 786-0 renal
[6] = system: SK-OV-3 ovarian
[7] = system: HOP-92 NSCLC
[8] = system: SK-MEL-28 melanoma
[9] = system: MDA-MB-435
[10] = system: MOLT-4 leukemia
[11] = system: NCI-H226 lung
[12] = system: HOP-62 NSCLC
[13] = system: SNB-75 CNS
[14] = system: SK-MEL-2 melanoma
[15] = system: NCI-H23 lung
[16] = system: HS 578T breast
[17] = system: MALME-3M melanoma

SMILES	TGI [1] [µM]	TGI [2] [µM]	TGI [3] [µM]	TGI [4] [µM]	TGI [5] [µM]	TGI [6] [µM]	TGI [7] [µM]	TGI [8] [µM]	TGI [9] [µM]	TGI [10] [µM]	TGI [11] [µM]	TGI [12] [µM]	TGI [13] [µM]	TGI [14] [µM]	TGI [15] [µM]	TGI [16] [µM]	TGI [17] [µM]
O=C(CC(=O)N1N=C(N(c2ccccc2)c2ccccc2)CC1c1ccccc1)Nc1ccccc1 (stereo unspecified)	> 100	> 100	> 100	> 100	> 100	> 100	> 100	> 100	> 100	> 100	> 100	> 100	> 100	> 100	> 100	> 100	–
N#CC1(C#N)C(c2ccccc2)C=CC(c2ccc([N+](=O)[O-])cc2)C1(C#N)C#N (stereo unspecified)	> 100	16.5	51.6	25	7.71	34.5	9.88	35.5	16.3	7.1	> 57.5	31.7	47.7	31.6	27.4	> 59.9	–
COc1cc2c(cc1OC)C(=O)/C(=C/c1ccc([N+](=O)[O-])cc1)CC2	> 10	> 10	> 10	> 10	> 10	> 10	> 10	> 10	> 10	> 10	> 10	> 10	–	> 10	> 10	> 10	> 10
O=C(c1ccccc1)C1C[C@H]2CO[C@H](c3ccccc3)N2C1=O (stereo partly specified)	> 100	> 100	> 100	> 100	> 100	–	> 100	> 100	> 100	> 100	> 100	–	> 100	> 100	> 100	> 100	> 100
O=[N+]([O-])c1ccc(C(=Nc2ccccc2)SSC(=Nc2ccccc2)c2ccc([N+](=O)[O-])o2)o1	–	2.2	4.4	4.03	4.08	14.3	6.22	7.04	6.17	> 24	56.4	6.23	3.45	6.15	3.38	5.34	5.09
O=c1[nH]c2cc([N+](=O)[O-])ccc2nc1/C=C(\O)c1ccc(Cl)cc1	> 100	28.4	53.8	32.5	14.4	43.4	36.6	22.9	45.2	46.2	40.6	–	55	36.4	29.4	44.8	84.9
COC(=O)c1ccc(NCC2=CC(=O)C=CC2=O)cc1	6.95	25.9	28.8	37	7.86	30.3	10.5	30.2	24.3	9.58	37.2	–	30.3	37.4	29.8	> 100	13.9
C#CCCOC(=O)c1ccccc1OC(C)=O	> 100	> 100	> 100	> 100	> 100	> 100	> 100	–	> 100	> 100	> 100	> 100	> 100	> 100	> 100	> 100	–
COCN1C(=O)[C@@H]2CCCN2C(=O)c2ccc([N+](=O)[O-])cc21	> 100	> 100	> 100	> 100	> 100	> 100	> 100	> 100	> 100	> 100	> 100	> 100	> 100	> 100	> 100	> 100	–
COC(=O)C1(C(=O)OC)CC2=C(S(=O)(=O)c3ccccc3)C[C@H](C#N)[C@H]2C1	–	> 100	> 100	> 100	> 100	> 100	> 100	> 100	> 100	> 100	> 100	> 100	> 100	> 100	> 100	> 100	> 100
CC1=CC(=O)/C(=C/n2c(=S)[nH]c3ccc([N+](=O)[O-])cc32)C(=O)O1	> 100	> 100	> 100	> 100	> 100	> 100	> 100	> 100	> 100	> 100	> 100	> 100	> 100	> 100	> 100	> 100	–
c1cc(NC2=NCCO2)c2c(c1)OCO2	> 100	> 100	> 100	> 100	> 100	> 100	> 100	> 100	> 100	> 100	> 100	> 100	–	> 100	> 100	> 100	> 100
O=c1cc(-c2cccc(OCc3ccccc3)c2)[nH]c2cc3c(cc12)OCO3	> 100	–	> 70.3	> 100	3.98	4.23	18.6	> 100	0.36	> 100	7.79	9.98	–	5.88	15	3.02	> 100
Cc1nnc2n1N=C(c1cc(F)c(Cl)cc1Cl)/C(=C/c1ccc3c(c1)OCO3)S2	> 100	> 100	> 100	> 100	> 100	> 100	> 100	> 100	> 100	> 100	> 100	> 100	–	> 100	> 100	> 100	> 100
